Values of other authors, collected in patent US20180256623A1, “COMPOSITIONS AND METHOD FOR REGULATING ADIPOSE TISSUE LIPOLYSIS, INSULIN-RESISTANCE, AND HYPERGLYCEMIA” (University of Virginia Patent Foundation, priority 2015, published 2018).

Experiments:
lipoprotein lipase = target: T1, lipoprotein lipase (Homo sapiens, UniProt P06858); conditions: cited from earlier work
T1 sequence (P06858 28-475): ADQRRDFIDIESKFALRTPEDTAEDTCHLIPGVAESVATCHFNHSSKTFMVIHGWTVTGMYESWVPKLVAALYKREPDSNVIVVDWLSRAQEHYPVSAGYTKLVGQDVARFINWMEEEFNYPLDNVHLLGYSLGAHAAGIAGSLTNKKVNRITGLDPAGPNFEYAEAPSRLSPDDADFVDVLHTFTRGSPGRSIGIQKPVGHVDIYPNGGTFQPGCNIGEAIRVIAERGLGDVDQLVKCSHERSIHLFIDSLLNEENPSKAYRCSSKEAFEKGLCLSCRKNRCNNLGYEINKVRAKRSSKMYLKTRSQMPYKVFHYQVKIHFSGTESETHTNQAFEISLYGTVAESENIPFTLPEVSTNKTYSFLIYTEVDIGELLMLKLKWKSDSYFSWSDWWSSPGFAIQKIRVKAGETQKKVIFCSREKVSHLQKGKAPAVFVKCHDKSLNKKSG

lipolysis by ATGL = conditions: in vivo; cited from earlier work
PNPLA7 = PNPLA7 (Homo sapiens, UniProt Q6ZV29); conditions: cited from earlier work
Chain of PNPLA7 (Q6ZV29 whole entry, species assumed): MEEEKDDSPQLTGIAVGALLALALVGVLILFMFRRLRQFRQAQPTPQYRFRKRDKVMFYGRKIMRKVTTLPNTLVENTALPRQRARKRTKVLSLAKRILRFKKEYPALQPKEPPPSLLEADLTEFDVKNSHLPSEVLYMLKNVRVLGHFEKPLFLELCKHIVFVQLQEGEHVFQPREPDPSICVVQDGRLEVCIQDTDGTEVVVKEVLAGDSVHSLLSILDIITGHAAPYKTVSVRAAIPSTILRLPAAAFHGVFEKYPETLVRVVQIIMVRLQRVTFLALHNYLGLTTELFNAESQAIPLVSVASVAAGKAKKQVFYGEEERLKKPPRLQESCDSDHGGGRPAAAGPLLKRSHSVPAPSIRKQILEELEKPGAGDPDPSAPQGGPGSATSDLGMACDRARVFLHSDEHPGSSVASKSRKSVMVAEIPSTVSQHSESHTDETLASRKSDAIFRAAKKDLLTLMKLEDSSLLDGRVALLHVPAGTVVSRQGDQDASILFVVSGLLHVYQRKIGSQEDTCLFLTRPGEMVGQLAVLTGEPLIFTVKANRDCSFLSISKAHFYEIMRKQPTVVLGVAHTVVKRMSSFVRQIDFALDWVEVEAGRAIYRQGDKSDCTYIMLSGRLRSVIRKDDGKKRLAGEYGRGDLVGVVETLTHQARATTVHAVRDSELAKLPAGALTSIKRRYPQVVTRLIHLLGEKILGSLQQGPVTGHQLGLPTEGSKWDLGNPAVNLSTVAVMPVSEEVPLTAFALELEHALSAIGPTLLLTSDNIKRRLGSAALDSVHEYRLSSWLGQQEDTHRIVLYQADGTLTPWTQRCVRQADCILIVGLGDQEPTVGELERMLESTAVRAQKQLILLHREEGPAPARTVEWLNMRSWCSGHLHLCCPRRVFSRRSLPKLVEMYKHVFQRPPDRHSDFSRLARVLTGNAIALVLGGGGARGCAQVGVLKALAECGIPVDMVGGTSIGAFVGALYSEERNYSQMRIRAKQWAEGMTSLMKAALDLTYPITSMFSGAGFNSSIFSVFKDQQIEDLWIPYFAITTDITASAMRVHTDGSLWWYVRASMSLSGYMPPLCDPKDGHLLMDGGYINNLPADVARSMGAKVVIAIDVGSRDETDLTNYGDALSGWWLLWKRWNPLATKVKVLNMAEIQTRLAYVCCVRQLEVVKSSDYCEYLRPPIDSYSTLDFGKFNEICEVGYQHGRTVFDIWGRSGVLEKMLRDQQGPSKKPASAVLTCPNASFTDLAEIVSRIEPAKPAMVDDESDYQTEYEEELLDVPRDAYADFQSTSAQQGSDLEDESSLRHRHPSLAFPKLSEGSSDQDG

CN(C)C(=O)Nc1cccc(-c2ccc(N(C)C)cc2)c1 [Atglistatin, N′-[4′-(dimethylamino) [1,1′-biphenyl]-3-yl]-N,N-dimethyl-urea]
inhibition of lipoprotein lipase (lipoprotein lipase): does not inhibit | lipolysis by ATGL (fatty acid mobilization) (lipolysis by ATGL): blocks lipolysis | inhibition of PNPLA7 (PNPLA7): does not inhibit
